Experiments:
[1] = X-ray powder diffraction (XRPD) crystal structure before and after processing; assay type: physicochemical
Text: The crystal structure of {2-[3-cyclohexyl-3-(trans-4-propoxy-cyclohexyl)-ureido]-thiazol-5-ylsulfanyl}-acetic acid was not changed during nanosizing.
The crystal structure of {2-[3-cyclohexyl-3-(trans-4-propoxy-cyclohexyl)-ureido]-thiazol-5-ylsulfanyl}-acetic acid was not changed during spray drying.

[2] = Biopharmaceutics Classification System (BCS) classification; assay type: physicochemical
Text: As a result, Class IV drugs have poor bioavailability and are usually not well-absorbed while having high variability. Preparing a stable, bioavailable composition containing {2-[3-cyclohexyl-3-(trans-4-propoxy-cyclohexyl)-ureido]-thiazol-5-ylsulfanyl}-acetic acid or a pharmaceutically acceptable salt thereof is, however, not straight forward.

[3] = system: insulin secretion by the pancreas; conditions: in the presence of glucose; cited from earlier work

SMILES: CCCO[C@H]1CC[C@H](N(C(=O)Nc2ncc(SCC(=O)O)s2)C2CCCCC2)CC1 [{2-[3-cyclohexyl-3-(trans-4-propoxy-cyclohexyl)-ureido]-thiazol-5-ylsulfanyl}-acetic acid]
- crystal structure (XRPD) ([1]; during nanosizing by microfluidization, lyophilized suspension): not changed
- crystal structure (XRPD) ([1]; during spray drying): not changed
- Biopharmaceutics Classification System (BCS) class [2]: Class IV
- solubility ([2]; BCS classification): low solubility
- insulin secretion by the pancreas [3]: does not increase insulin secretion

Source: US20160015638A1, “STABLE GLUCOKINASE ACTIVATOR COMPOSITIONS” (vTv Therapeutics LLC, priority 2013, published 2016)
